Each block holds one molecule with its values, some of them ahead of it. The source made the active and inactive calls.
Assays:
[1] = loss of viability in HepG2 cells – cell-based, CellTiter-Glo, cherry-picked, cytotoxicity control for Shn3 inhibitor project, dose response (AID 624134); format: functional
[2] = non-specific 3'UTR reporter inhibition in Clone20-Shn3RL – cell-based, Renilla luciferase, cherry-picked, counter-screen for Shn3 inhibitor project, dose response (AID 624133); format: functional
[3] = reduction of Shn3 3'UTR-driven luciferase in osteoblasts – cell-based, Clone20 osteoblasts, firefly luciferase, cherry-picked, dose response (AID 624132); format: functional;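 further: firefly luciferase luminescence from reporter carrying the Shn3 3'UTR in osteoblasts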
Cytochrome P450 2D6 = Cytochrome P450 2D6 (Homo sapiens, UniProt P10635);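 further: CYP2D6 member of a cytochrome P450 panel assay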
Sequence of Cytochrome P450 2D6 (P10635 whole entry): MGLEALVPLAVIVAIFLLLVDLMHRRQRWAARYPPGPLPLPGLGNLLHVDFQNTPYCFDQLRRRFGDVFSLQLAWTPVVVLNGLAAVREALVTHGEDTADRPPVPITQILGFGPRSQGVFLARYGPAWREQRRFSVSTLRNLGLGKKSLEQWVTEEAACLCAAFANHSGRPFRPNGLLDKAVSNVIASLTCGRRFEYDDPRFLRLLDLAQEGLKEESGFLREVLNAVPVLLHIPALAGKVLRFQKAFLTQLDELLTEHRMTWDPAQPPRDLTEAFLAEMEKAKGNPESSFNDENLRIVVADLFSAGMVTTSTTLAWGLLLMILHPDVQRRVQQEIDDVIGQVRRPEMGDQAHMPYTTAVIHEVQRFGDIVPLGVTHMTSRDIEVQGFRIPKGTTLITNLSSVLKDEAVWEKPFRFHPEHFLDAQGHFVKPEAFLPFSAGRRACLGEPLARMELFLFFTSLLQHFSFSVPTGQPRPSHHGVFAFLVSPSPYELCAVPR

Cytochrome P450 2C9 = Cytochrome P450 2C9 (Homo sapiens, UniProt P11712)
Sequence of Cytochrome P450 2C9 (P11712 whole entry): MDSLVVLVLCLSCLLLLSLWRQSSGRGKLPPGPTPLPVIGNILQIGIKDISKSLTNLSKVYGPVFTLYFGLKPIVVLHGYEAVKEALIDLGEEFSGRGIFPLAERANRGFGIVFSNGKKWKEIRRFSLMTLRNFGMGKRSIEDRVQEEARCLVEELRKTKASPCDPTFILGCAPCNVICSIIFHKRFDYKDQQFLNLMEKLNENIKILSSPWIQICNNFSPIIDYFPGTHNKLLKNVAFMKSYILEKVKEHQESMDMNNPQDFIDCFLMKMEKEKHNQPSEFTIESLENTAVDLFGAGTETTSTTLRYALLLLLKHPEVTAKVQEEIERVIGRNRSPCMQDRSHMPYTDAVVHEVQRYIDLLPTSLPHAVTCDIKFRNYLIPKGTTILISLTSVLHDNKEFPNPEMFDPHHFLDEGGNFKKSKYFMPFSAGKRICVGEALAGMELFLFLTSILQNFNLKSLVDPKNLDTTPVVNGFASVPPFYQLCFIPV

Cytochrome P450 2C19 = Cytochrome P450 2C19 (Homo sapiens, UniProt P33261); experiment: Cytochrome panel assay with activity outcomes. Panel member name: p450-cyp2c19 Compounds with AC50 equal or less than 10 uM are considered active; format: functional; conditions: read-out: AC50
Sequence of Cytochrome P450 2C19 (P33261 whole entry): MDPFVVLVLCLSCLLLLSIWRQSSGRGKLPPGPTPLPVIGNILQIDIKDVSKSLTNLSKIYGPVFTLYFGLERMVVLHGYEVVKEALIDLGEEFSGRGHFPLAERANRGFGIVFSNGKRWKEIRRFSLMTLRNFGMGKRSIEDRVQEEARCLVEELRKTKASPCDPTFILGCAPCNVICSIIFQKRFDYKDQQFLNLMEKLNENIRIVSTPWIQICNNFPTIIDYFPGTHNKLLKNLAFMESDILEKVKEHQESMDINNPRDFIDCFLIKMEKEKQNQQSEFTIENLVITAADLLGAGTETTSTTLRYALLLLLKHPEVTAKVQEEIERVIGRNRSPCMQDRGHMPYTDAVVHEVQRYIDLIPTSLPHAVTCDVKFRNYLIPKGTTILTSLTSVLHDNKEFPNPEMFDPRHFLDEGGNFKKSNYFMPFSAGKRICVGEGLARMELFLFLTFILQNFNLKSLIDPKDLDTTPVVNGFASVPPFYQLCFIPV

Cytochrome P450 1A2 = biological target: T1, Cytochrome P450 1A2 (Homo sapiens, UniProt P05177);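 further: PubChem cytochrome P450 panel assay, CYP1A2 panel member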
T1 sequence (P05177 whole entry): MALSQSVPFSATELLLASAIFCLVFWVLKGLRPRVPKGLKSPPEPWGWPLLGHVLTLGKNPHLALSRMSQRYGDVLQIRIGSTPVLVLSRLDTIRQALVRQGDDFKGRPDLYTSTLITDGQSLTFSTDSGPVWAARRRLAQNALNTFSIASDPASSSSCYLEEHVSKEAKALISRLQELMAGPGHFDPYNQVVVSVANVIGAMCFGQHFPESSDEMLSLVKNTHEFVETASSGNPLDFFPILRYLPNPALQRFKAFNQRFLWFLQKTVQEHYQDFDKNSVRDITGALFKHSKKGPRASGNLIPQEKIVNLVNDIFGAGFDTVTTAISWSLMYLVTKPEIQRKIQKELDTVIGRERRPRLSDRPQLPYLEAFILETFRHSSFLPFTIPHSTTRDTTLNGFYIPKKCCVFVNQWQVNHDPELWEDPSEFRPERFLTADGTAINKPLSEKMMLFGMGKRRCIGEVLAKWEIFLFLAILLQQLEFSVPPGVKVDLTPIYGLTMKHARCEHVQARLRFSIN

INS1 = experiment: INS-1E survival protection against cytokine death – cell-based, luminescence, retest, dose response (AID 449756); format: functional; conditions: Rattus norvegicus;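 further: cell death triggered by IL-1 beta plus TNF-alpha plus IFN-gamma mixture; protective hits raise ATP signal compared with cytokine alone wells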
[4] = biological target: T2, Corticotropin-releasing factor receptor 2/Corticotropin-releasing factor-binding protein (Homo sapiens, UniProt P24387+Q13324); experiment: activators of CRF receptor 2 with binding protein – uHTS hits, confirmation (AID 602473); format: functional; conditions: read-out: EC50_Mean
T2 sequence (Q13324 whole entry): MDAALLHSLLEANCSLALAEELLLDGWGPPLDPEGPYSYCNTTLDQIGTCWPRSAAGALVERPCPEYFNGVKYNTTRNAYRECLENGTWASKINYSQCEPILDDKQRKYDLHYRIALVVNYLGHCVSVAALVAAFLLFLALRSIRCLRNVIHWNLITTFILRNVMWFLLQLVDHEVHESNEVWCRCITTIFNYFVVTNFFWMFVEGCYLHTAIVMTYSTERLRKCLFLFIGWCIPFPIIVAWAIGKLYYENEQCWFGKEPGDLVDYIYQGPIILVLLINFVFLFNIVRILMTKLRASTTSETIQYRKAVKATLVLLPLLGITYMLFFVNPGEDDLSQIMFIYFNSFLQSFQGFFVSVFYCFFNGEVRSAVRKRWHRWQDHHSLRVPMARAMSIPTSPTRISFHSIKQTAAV
T2 sequence (P24387 whole entry): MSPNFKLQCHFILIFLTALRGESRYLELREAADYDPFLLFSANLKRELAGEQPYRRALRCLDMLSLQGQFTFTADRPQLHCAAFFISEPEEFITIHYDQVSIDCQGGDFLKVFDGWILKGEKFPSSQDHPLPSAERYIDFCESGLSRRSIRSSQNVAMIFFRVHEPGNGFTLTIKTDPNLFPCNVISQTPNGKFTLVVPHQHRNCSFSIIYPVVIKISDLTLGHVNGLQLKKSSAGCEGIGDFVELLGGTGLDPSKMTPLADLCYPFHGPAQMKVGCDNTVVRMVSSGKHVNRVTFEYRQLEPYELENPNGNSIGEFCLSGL

Cytochrome P450 3A4 = Cytochrome P450 3A4 (Homo sapiens, UniProt P08684);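 further: CYP3A4 tested as one member of a cytochrome P450 panel screen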
Sequence of Cytochrome P450 3A4 (P08684 whole entry): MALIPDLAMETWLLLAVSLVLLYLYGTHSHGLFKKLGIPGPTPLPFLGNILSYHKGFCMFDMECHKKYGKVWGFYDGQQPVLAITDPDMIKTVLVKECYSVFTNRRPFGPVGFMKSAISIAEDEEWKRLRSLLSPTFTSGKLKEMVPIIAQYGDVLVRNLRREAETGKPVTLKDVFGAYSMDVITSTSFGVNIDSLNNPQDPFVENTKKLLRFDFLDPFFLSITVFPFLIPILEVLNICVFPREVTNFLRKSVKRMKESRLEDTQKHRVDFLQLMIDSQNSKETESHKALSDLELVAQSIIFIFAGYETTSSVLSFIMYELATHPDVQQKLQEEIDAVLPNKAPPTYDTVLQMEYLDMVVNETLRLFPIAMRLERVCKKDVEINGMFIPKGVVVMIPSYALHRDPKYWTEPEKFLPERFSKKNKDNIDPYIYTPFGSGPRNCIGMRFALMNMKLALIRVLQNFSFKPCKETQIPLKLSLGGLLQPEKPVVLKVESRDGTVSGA

P388/ADR = experiment: cells; format: functional; conditions: Mus musculus
SN12K1 = experiment: cells; format: functional; conditions: Homo sapiens
P388 = experiment: cells; format: functional; conditions: Mus musculus

SMILES: NC(Cc1ccc(Cl)cc1)c1csc(NC(=O)NCC2CCCCC2)n1 (centres undefined)
AC50 [1]: 11.1 µM (active) | AC50 [2]: 9.27 µM (active) | AC50 [3]: 6.58 µM (active)

AC50 (Cytochrome P450 2D6): 15.8 µM (inconclusive) | AC50 (Cytochrome P450 2C9): 28.2 µM (inconclusive)
SMILES: COc1cc(NC(=O)COC(=O)c2nc3nc(C)cc(C)n3n2)cc(OC)c1

AC50 (Cytochrome P450 2C9): 15.8 µM (inconclusive) | AC50 (Cytochrome P450 2C19): 25.1 µM (inconclusive)
SMILES: COc1cccc(OCc2nnc(SCC(=O)NCc3ccco3)n2C)c1

AC50 (Cytochrome P450 1A2): 28.2 µM (inconclusive) | AC50 (Cytochrome P450 2C9): 1 µM (inconclusive)
SMILES: CNc1cnn(-c2ccccc2)c(=O)c1Cl

SMILES: Cc1ccc(-c2sc(-c3ccccc3)nc2CC(=O)Nc2ccccc2F)cc1
AC50 (INS1): 2.27 µM (active) | EC50 [4]: > 53 µM (inactive)

AC50 (Cytochrome P450 1A2): 28.2 µM (inconclusive)
SMILES: CCOC(=O)CC1NC(=O)c2ccccc21 (centres undefined)

AC50 (Cytochrome P450 2C9): 12.6 µM (inconclusive)
SMILES: CC1=C(C(=O)Nc2ccccc2)C(c2ccco2)NC(S)=N1 (centres undefined)

AC50 (Cytochrome P450 2C9): 7.94 µM (inconclusive) | AC50 (Cytochrome P450 3A4): 14.1 µM (inconclusive) | AC50 (Cytochrome P450 2C19): 1 µM (inconclusive)
SMILES: N#Cc1cc(-c2ccc(Cl)cc2)cnc1Sc1ccc(F)cc1

AC50 (Cytochrome P450 2D6): 39.8 µM (inconclusive) | AC50 (Cytochrome P450 2C19): 7.94 µM (inconclusive)
SMILES: N#Cc1ccccc1-c1ccc2ncnc(NC3CC3)c2c1

AC50 (Cytochrome P450 2D6): 15.8 µM (inconclusive) | AC50 (Cytochrome P450 2C19): 1.78 µM (inconclusive)
SMILES: OC(COc1ccc(OCC(O)CN2CCCCCC2)cc1)CN1CCCCCC1 (centres undefined)

EC50 [4]: > 53 µM (inactive)
SMILES: CCN1/C(=C2\SC(=S)N(Cc3ccccc3)C2=O)Sc2ccccc21

SMILES: CC(=O)c1c(O)c(C)c(O)c(Cc2c(O)c3c(c(C(=O)/C=C\c4ccccc4)c2O)OC(C)(C)C=C3)c1O
AC50 (Cytochrome P450 1A2): 31.6 µM (inconclusive)

AC50 (Cytochrome P450 2D6): 7.94 µM (inconclusive) | AC50 (Cytochrome P450 2C9): 10 µM (inconclusive)
SMILES: COc1cccc(C2NC(c3cccc(OC)c3O)C(C)C(=O)C2C)c1O (centres undefined)

SMILES: Oc1c(CNCCCN2CCCC2)cc(Cl)c2cccnc12
GI50 (P388/ADR): 1.1 µM (active) | GI50 (SN12K1): 0.942 µM (active) | GI50 (P388): 1.69 µM (inactive)

SMILES: C=CCc1cccc(/C=N\N/C(N)=N/O)c1O
GI50 (P388/ADR): 0.78 µM (active) | GI50 (SN12K1): 2.01 µM (inactive) | GI50 (P388): 1.19 µM (inactive)

AC50 (Cytochrome P450 1A2): 10 µM (inconclusive) | AC50 (Cytochrome P450 3A4): 25.1 µM (inconclusive)
SMILES: CCOC(=O)CC(Nc1nc(N2CCOCC2)nc(N2CCOCC2)n1)c1ccccc1Cl (centres undefined)

EC50 [4]: > 53 µM (inactive)
SMILES: COc1ccc(NC(=O)CN(C)C(=O)CSc2ccc3c(c2)OCCO3)cc1

AC50 (Cytochrome P450 1A2): 15.8 µM (inconclusive) | AC50 (Cytochrome P450 2C9): 20 µM (inconclusive) | AC50 (Cytochrome P450 2C19): 3.98 µM (inconclusive)
SMILES: CCCC[C@H](CC)CNC(=N)NC(=N)NCCCCCCNC(=N)NC(=N)NC[C@@H](CC)CCCC

SMILES: Cc1ccc2cc3cccc(C(=O)NCCN(C)C)c3nc2c1
GI50 (P388/ADR): 0.252 µM (active) | GI50 (SN12K1): 0.426 µM (active) | GI50 (P388): 0.257 µM (active)

SMILES: COc1cccc2c1C(=O)c1c(O)c3c(c(O)c1C2=O)C[C@@](O)(C(=O)CO)C[C@@H]3OC1CC(N2CCOCC2)C(O)C(C)O1 (some centres undefined)
GI50 (P388/ADR): 0.00136 µM (active) | GI50 (SN12K1): 0.00366 µM (active) | GI50 (P388): 0.0025 µM (active)

AC50 (Cytochrome P450 1A2): 15.8 µM (inconclusive) | AC50 (Cytochrome P450 2C19): 25.1 µM (inconclusive)
SMILES: CCC(C)(C)n1nnnc1C(C(C)C)N(CCCO)Cc1cc2cc(C)ccc2nc1O (centres undefined)

Reference: ChEMBL document CHEMBL1201862, “PubChem BioAssay data set” (2004)
